Test systems include OVCAR-5; CCRF-CEM; OVCAR-4; M14; A498; LXFL 529; IGROV-1; HOP-92; NCI-H226; HCT-15; HT-29; SNB-75; NCI-H522; HL-60; TK-10; UO-31; COLO 205; SK-MEL-28; ACHN.
Holding throughout (assay): NCI-60 cell line screen, 48 h

Results on 8 compounds are retold here after ChEMBL document CHEMBL1201862, “PubChem BioAssay data set” (2004).

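Five compound concentrations were applied to cells in 96-well plates for 48 hours; endpoints were derived by simple linear interpolation of the resulting dose-response curve. GI50: concentration for 50% inhibition of growth.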 The source made the active and inactive calls. No stated cut-off is given here; in the data, active = GI50 up to about 1.1 µM and inactive = higher. A value given as a limit tells only on which side of the number the result lay.

For the compound `COC(=O)[C@@H]1CCCCC[C@H]2C(CO)=C(C)C(=O)C12` (stereo partly drawn), the GI50 with OVCAR-5, in the test on CCRF-CEM, in the test with OVCAR-4, with M14, in the test with A498 and with LXFL 529 was > 100 µM (inactive) throughout. In addition, the GI50 in the test on IGROV-1 was > 100 µM (inactive); in the test on HOP-92 it was > 100 µM (inactive); with NCI-H226 it was 99.1 µM (inactive); in the test with HCT-15 it was over 100 µM; in the test on HT-29, > 100 µM (inactive); in the test with SNB-75, > 100 µM (inactive). Also, the GI50 in the test with NCI-H522, in the test on HL-60, in the test on TK-10, in the test with UO-31, with COLO 205 and in the test with SK-MEL-28 was > 100 µM (inactive) in each case. For the same compound, in the test on ACHN, the GI50 is > 100 µM (inactive).
As to `COc1nc(NC2OC(COC(C)=O)C(OC(C)=O)C(OC(C)=O)C2OC(C)=O)c(/N=C/C=N/c2c(NC3OC(COC(C)=O)C(OC(C)=O)C(OC(C)=O)C3OC(C)=O)nc(OC)[nH]c2=O)c(=O)[nH]1` (stereo not drawn), the GI50 in the test with OVCAR-5, with CCRF-CEM, with OVCAR-4, in the test on M14, with A498 and in the test with LXFL 529 was > 100 µM (inactive) throughout. Moreover, the GI50 with IGROV-1, in the test on HOP-92, in the test with NCI-H226, in the test with HT-29, in the test with SNB-75 and with NCI-H522 was > 100 µM (inactive) each time. Besides, the GI50 in the test with HL-60, with TK-10, in the test on UO-31, in the test on COLO 205, in the test with SK-MEL-28 and in the test with ACHN was > 100 µM (inactive) each time.
Turning to `C[N+](C)(C)CC1CCC/C1=N/O` (stereo not drawn), the GI50 in the test with OVCAR-5 is > 100 µM (inactive); in the test on CCRF-CEM it was 17.9 µM (inactive); in the test on OVCAR-4, > 100 µM (inactive); in the test with M14, > 100 µM (inactive); in the test on A498, > 100 µM (inactive); with LXFL 529, 54.5 µM (inactive). Moreover, the GI50 was > 100 µM (inactive) in the test on IGROV-1; > 100 µM (inactive) in the test on HOP-92; > 100 µM (inactive) with NCI-H226; 20 µM in the test with HCT-15; 39.3 µM (inactive) in the test on HT-29; > 100 µM (inactive) with SNB-75. The GI50 with NCI-H522 was > 100 µM (inactive); with HL-60, 20.1 µM (inactive); in the test with TK-10, > 100 µM (inactive); in the test with UO-31 it was > 100 µM (inactive); with COLO 205 it was 21.5 µM (inactive); in the test on SK-MEL-28, > 100 µM (inactive). In addition, the GI50 with ACHN is > 100 µM (inactive).
With `COc1ccc(/C=C2\N=C(c3ccccc3)N(Nc3nnc(NN4C(=O)/C(=C/c5ccc(OC)cc5)N=C4c4ccccc4)c4ccccc34)C2=O)cc1`, the GI50 was > 100 µM (inactive) with OVCAR-5; 30.7 µM (inactive) in the test with CCRF-CEM; 53.2 µM (inactive) in the test on OVCAR-4; > 100 µM (inactive) in the test with M14; > 100 µM (inactive) in the test with A498; 44.4 µM (inactive) with LXFL 529. For the same compound, the GI50 in the test on IGROV-1 is > 100 µM (inactive); with HOP-92, > 100 µM (inactive); in the test with NCI-H226 it was 96.4 µM (inactive); in the test with HCT-15, 40.8 µM; in the test on HT-29, 57.5 µM (inactive); in the test with SNB-75 it was 68.9 µM (inactive). Also, the GI50 in the test on NCI-H522 is 35.1 µM (inactive); in the test with HL-60, 30 µM (inactive); with COLO 205, > 100 µM (inactive); in the test on SK-MEL-28 it was 71.1 µM (inactive); with ACHN, > 100 µM (inactive).
Take `CCN1c2ccccc2C(C(SC)S(=O)(=O)c2ccc(C)cc2)c2c1[nH]c(=O)n(C)c2=O` (stereo not drawn): the GI50 in the test with OVCAR-5, in the test with CCRF-CEM, in the test with OVCAR-4, in the test on A498, in the test on LXFL 529 and with IGROV-1 was > 100 µM (inactive) each time. Moreover, the GI50 in the test with HOP-92 is > 100 µM (inactive); with NCI-H226, > 100 µM (inactive); in the test with HCT-15, over 100 µM; with HT-29 it was > 100 µM (inactive); in the test on SNB-75, 23.7 µM (inactive); in the test on NCI-H522, > 100 µM (inactive). The GI50 in the test on HL-60 is 89.9 µM (inactive); in the test on TK-10, > 100 µM (inactive); with UO-31, > 100 µM (inactive); with COLO 205, > 100 µM (inactive); in the test with SK-MEL-28, > 100 µM (inactive).
For `CCc1cccc(C(C)C)c1NC(=O)C(=O)CC(=O)c1c(C)[n+]([O-])c2ccccc2[n+]1[O-]`, the GI50 in the test with OVCAR-5, in the test with CCRF-CEM, in the test on OVCAR-4, in the test with M14, with A498 and with LXFL 529 was > 100 µM (inactive) in each case. Also, the GI50 in the test on IGROV-1 is > 100 µM (inactive); in the test with HOP-92, > 100 µM (inactive); with NCI-H226, > 100 µM (inactive); in the test with HCT-15, over 100 µM; in the test with SNB-75, > 100 µM (inactive); with NCI-H522, > 100 µM (inactive). The GI50 with HL-60 was > 100 µM (inactive); in the test with TK-10, > 100 µM (inactive); in the test with UO-31, > 100 µM (inactive); in the test with COLO 205, > 100 µM (inactive); with SK-MEL-28, > 100 µM (inactive); in the test with ACHN, 77.6 µM (inactive).
With `Cc1cc(C)nc(NS(=O)(=O)c2ccc(NC(=O)c3ccc(Cl)c4c(Nc5ccc(S(=O)(=O)Nc6cc(C)on6)cc5)c5ccccc5nc34)cc2)n1`, the GI50 with OVCAR-5 is 21 µM (inactive); in the test on OVCAR-4, 16.7 µM (inactive); in the test with M14, 18.8 µM (inactive); in the test with A498 it was 15.3 µM (inactive); in the test with LXFL 529, 16.8 µM (inactive); in the test on IGROV-1, 20.1 µM (inactive). The GI50 in the test with HOP-92 is 16.3 µM (inactive); with NCI-H226, 17.5 µM (inactive); with HT-29, 19.5 µM (inactive); in the test on SNB-75, > 10 µM (inactive); in the test on NCI-H522, 16.1 µM (inactive); in the test with HL-60 it was 8.95 µM (inactive). In addition, the GI50 with TK-10 was 18.3 µM (inactive); in the test on UO-31, 17.6 µM (inactive); with COLO 205, 18.1 µM (inactive); in the test on SK-MEL-28 it was 18.4 µM (inactive); in the test on ACHN it was 18.9 µM (inactive).
In the case of `O=c1[nH]c(=O)n(C2CC(O)C(CO)O2)cc1OS(=O)(=O)C(F)(F)F` (stereo not drawn), the GI50 in the test with OVCAR-5, with CCRF-CEM, in the test with OVCAR-4, in the test on M14, with A498 and in the test with LXFL 529 was > 100 µM (inactive) throughout. The GI50 with IGROV-1 is > 100 µM (inactive); with HOP-92, > 100 µM (inactive); with NCI-H226, > 100 µM (inactive); in the test on HCT-15 it was over 100 µM; with HT-29, > 100 µM (inactive); in the test with SNB-75, > 100 µM (inactive). Further, the GI50 with NCI-H522, in the test with HL-60, in the test with TK-10, in the test with COLO 205, in the test with SK-MEL-28 and in the test with ACHN was > 100 µM (inactive) in each case.
